According to patent US20160130278A1 (TAISHO PHARMACEUTICAL CO., LTD, priority 2013, published 2016):

Molecular target: T1, human type 1 glycine transporter (GlyT1) (Homo sapiens, UniProt P48067)
T1 construct: T98G cells (glioma cells) expressing human type 1 glycine transporter (GlyT1) were used
T1 sequence (P48067 1-706): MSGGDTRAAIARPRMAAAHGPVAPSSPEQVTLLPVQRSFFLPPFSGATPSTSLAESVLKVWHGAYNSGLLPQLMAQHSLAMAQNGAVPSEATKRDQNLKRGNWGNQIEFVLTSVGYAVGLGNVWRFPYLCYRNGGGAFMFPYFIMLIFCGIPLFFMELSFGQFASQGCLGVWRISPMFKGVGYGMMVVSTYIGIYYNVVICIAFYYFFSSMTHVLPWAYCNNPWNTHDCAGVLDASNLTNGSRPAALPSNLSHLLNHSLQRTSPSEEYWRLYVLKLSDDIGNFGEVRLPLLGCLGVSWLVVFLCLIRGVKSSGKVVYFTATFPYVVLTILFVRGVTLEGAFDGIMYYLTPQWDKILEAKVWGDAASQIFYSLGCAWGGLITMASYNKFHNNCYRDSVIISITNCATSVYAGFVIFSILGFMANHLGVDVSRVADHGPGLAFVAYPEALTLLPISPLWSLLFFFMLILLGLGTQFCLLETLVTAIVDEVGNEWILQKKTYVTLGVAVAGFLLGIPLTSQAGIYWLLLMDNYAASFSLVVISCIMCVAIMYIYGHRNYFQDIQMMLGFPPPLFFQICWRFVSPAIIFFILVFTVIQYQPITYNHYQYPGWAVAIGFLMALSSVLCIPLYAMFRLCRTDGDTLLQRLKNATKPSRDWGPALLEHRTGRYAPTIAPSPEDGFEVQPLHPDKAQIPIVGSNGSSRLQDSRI
Assay: Glycine uptake inhibition experiment ([3H]glycine uptake)
Type: cell-based
Settings: GlyT1
In short: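 T98G glioma cells expressing human GlyT1 were pretreated 10 min with compound in HEPES buffer pH 7.4 (0.2% BSA), then incubated with compound plus 250 nM final [3H]glycine for 15 min at room temperature. Intracellular radioactivity was counted after NaOH lysis; 10 μM ALX5407 defined non-specific uptake. IC50 came from 10^−9–10^−5 M curves.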

| IC50 [nM] | Structure (SMILES) |
| --- | --- |
| 740 | O=C(NC(c1cc(Cl)ccc1Cl)C1(O)CCC(F)(F)CC1)c1nccc(C(F)(F)F)c1Cl (single isomer, unassigned) [Compound 235, 3-chloro-N-[(2,5-dichlorophenyl)(4,4-difluoro-1-hydroxycyclohexyl)methyl]-4-(trifluoromethyl)pyridine-2-carboxamide] |
| 5600 | CCn1cc(-c2cccc(C(NC(=O)c3c(Cl)ccc(C(F)(F)F)c3Cl)C3(O)CCC(F)(F)CC3)c2)cn1 (single isomer, unassigned) [Compound 221, 2,6-dichloro-N-{(4,4-difluoro-1-hydroxycyclohexyl)[3-(1-ethyl-1H-pyrazol-4-yl)phenyl]methyl}-3-(trifluoromethyl)benzamide] |
| 7100 | O=C(NC(c1cccc(F)c1)C1(O)CCCC1)c1cccc(C(F)(F)F)c1Cl (single isomer, unassigned) [Compound 72, 2-chloro-N-[(3-fluorophenyl)(1-hydroxycyclopentyl)methyl]-3-(trifluoromethyl)benzamide] |
| 1200 | COc1cccc(Cl)c1C(=O)NC(c1cccc(F)c1Cl)[C@]1(O)CC[C@@H](F)CC1 (single isomer, unassigned) [Compound 300, 2-chloro-N-[(2-chloro-3-fluorophenyl)(cis-4-fluoro-1-hydroxycyclohexyl)methyl]-6-methoxybenzamide] |
| 1000 | CCn1cc(-c2cccc(C(NC(=O)c3ccnc(Cl)c3Cl)C3(O)CCC(F)(F)CC3)c2)cn1 (stereo not shown) [Compound 173, 2,3-dichloro-N-{(4,4-difluoro-1-hydroxycyclohexyl)[3-(1-ethyl-1H-pyrazol-4-yl)phenyl]methyl}pyridine-4-carboxamide] |
| 820 | Cc1ccc(C(F)(F)F)c(C(=O)NC(c2cccc(F)c2Cl)[C@]2(O)CC[C@@H](F)CC2)n1 (single isomer, unassigned) [Compound 315, N-[(2-chloro-3-fluorophenyl)(cis-4-fluoro-1-hydroxycyclohexyl)methyl]-6-methyl-3-(trifluoromethyl)pyridine-2-carboxamide] |
| 670 | CC(=O)c1ccc(-c2cccc(C(NC(=O)c3cccc(C(F)(F)F)c3Cl)C3(O)CCCC3)c2)cc1 (stereo not shown) [Compound 6, N-[(4′-acetylbiphenyl-3-yl)(1-hydroxycyclopentyl)methyl]-2-chloro-3-(trifluoromethyl)benzamide] |
| 2000 | CCn1cc(-c2cccc(C(NC(=O)c3c(Cl)ccc(OC)c3F)C3(O)CCC(F)(F)CC3)c2)cn1 (stereo not shown) [Compound 183, 6-chloro-N-{(4,4-difluoro-1-hydroxycyclohexyl)[3-(1-ethyl-1H-pyrazol-4-yl)phenyl]methyl}-2-fluoro-3-methoxybenzamide] |
| 80 | O=C(NC(c1cccc(-c2cccnc2)c1)C1(O)CCCCC1)c1nccc(C(F)(F)F)c1Cl (stereo not shown) [Compound 26, 3-chloro-N-{(hydroxycyclohexyl)[3-(pyridin-3-yl)phenyl]methyl}-4-(trifluoromethyl)pyridine-2-carboxamide] |
| 310 | CCn1cc(-c2cccc(C(NC(=O)c3cccc(Cl)c3C)C3(O)CCC(F)(F)CC3)c2)cn1 (stereo not shown) [Compound 124, 3-chloro-N-{(4,4-difluoro-1-hydroxycyclohexyl)[3-(1-ethyl-1H-pyrazol-4-yl)phenyl]methyl}-2-methylbenzamide] |
| 4000 | O=C(NC(c1ncccc1Cl)[C@]1(O)CC[C@@H](F)CC1)c1nccc(C(F)(F)F)c1Cl (single isomer, unassigned) [Compound 303, 3-chloro-N-[(3-chloropyridin-2-yl)(cis-4-fluoro-1-hydroxycyclohexyl)methyl]-4-(trifluoromethyl)pyridine-2-carboxmaide] |

The remaining lines, values behind:

| Structure (SMILES) | IC50 [nM] |
| --- | --- |
| O=C(NC(c1cc(Cl)ccn1)[C@]1(O)CC[C@@H](F)CC1)c1ccc(C(F)(F)F)nc1Cl (single isomer, unassigned) [Compound 335, 2-chloro-N-[(4-chloropyridin-2-yl)(cis-4-fluoro-1-hydroxycyclohexyl)methyl]-6-(trifluoromethyl)pyridine-3-carboxamide] | 270 |
| O=C(NC(c1cccc(F)c1)C1(O)CCC(F)(F)CC1)c1nccc(C(F)(F)F)c1Cl (stereo not shown) [Compound 75, 3-chloro-N-[(4,4-difluoro-1-hydroxycyclohexyl)(3-fluorophenyl)methyl]-4-(trifluoromethyl)pyridine-2-carboxamide] | 240 |
| O=C(NC(c1cccc(Cl)c1)C1(O)CCC(F)(F)CC1)c1ccnc(C(F)(F)F)c1Cl (single isomer, unassigned) [Compound 167, 3-chloro-N-[(3-chlorophenyl)(4,4-difluoro-1-hydroxycyclohexyl)methyl]-2-(trifluoromethyl)pyridine-4-carboxamide] | 210 |
| O=C(NC(c1cccc(-n2cccn2)c1)C1(O)CCCC1)c1nccc(C(F)(F)F)c1Cl (single isomer, unassigned) [Compound 82, 3-chloro-N-{(1-hydroxycyclopentyl)[3-(1H-pyrazol-1-yl)phenyl]methyl}-4-(trifluoromethyl)pyridine-2-carboxamide] | 89 |
| O=C(N[C@@H](c1cccc(Cl)c1)[C@]1(O)CC[C@H](F)CC1)c1nccc(C(F)(F)F)c1Cl [Compound 187, 3-chloro-N-[(S)-(3-chlorophenyl)(trans-4-fluoro-1-hydroxycyclohexyl)methyl]-4-(trifluoromethyl)pyridine-2-carboxamide] | 210 |
| CCn1cc(-c2cccc(C(NC(=O)c3c(Cl)ccc(Cl)c3OC)C3(O)CCC(F)(F)CC3)c2)cn1 (stereo not shown) [Compound 182, 3,6-dichloro-N-[(4,4-difluoro-1-hydroxycyclohexyl)[3-(1-ethyl-1H-pyrazol-4-yl)phenyl]methyl}-2-methoxybenzamide] | 580 |
| O=C(NC(c1cccc(Cl)n1)[C@]1(O)CC[C@@H](F)CC1)c1cccc(C(F)(F)F)c1Cl (single isomer, unassigned) [Compound 327] | 81 |
| CCn1cc(-c2cccc(C(NC(=O)c3nccc4ccccc34)C3(O)CCC(F)(F)CC3)c2)cn1 (stereo not shown) [Compound 139, N-{(4,4-difluoro-1-hydroxycyclohexyl)[3-(1-ethyl-1H-pyrazol-4-yl)phenyl]methyl}isoquinoline-1-carboxamide] | 430 |
| O=C(NC(c1cccc(F)c1Cl)[C@]1(O)CC[C@@H](F)CC1)c1nccc(C(F)F)c1Cl (single isomer, unassigned) [Compound 241, 3-chloro-N-[(2-chloro-3-fluorophenyl)(cis-4-fluoro-1-hydroxycyclohexyl)methyl]-4-(difluoromethyl)pyridine-2-carboxamide] | 110 |

Same assay, conditions: human GlyT1

| IC50 [nM] | Structure (SMILES) |
| --- | --- |
| 230 | O=C(NC(c1cccc(F)c1)C1(O)CCC(F)(F)CC1)c1ccnc(C(F)(F)F)c1Cl (single isomer, unassigned) [Compound 400, 3-chloro-N-[(4,4-difluoro-1-hydroxycyclohexyl)(3-fluorophenyl)methyl]-2-(trifluoromethyl)pyridine-4-carboxamide] |
| 2200 | O=C(NC(c1ccccc1Cl)C1(O)CCC(F)(F)CC1)c1ccc(C(F)(F)F)nc1-n1nccn1 (single isomer, unassigned) [Compound 408, N-[(2-chlorophenyl)(4,4-difluoro-1-hydroxycyclohexyl)methyl]-2-(2H-1,2,3-triazol-2-yl)-6-(trifluoromethyl)pyridine-3-carboxamide] |
